The record followed here is patent US12281149B2, “Modulators of G-protein coupled receptors” (priority 2021, dated 2025).

Broadly, the EC50 is the concentration needed to bring the measured effect to its halfway point. One may read the Emax as the greatest response seen or fitted, relative to the assay's reference.

The structures appear in SMILES notation.

What all share (type): cell-based
Assay [1] addresses T1, GLP-1 receptor (Homo sapiens, UniProt P43220). Kind of assay: HitHunter cAMP assay, GLP-1 receptor. As to conditions: for EC50: CHO cells stably expressing human GLP-1 receptor, cAMP accumulation, 30 min, read-out: EC50 GLP-1R; for Emax: CHO cells, cAMP, normalized to maximum signal from GLP-1 (high) and DMSO (low), read-out: Emax GLP-1R.
Assay [2] has as its target T2, GIP receptor (Homo sapiens, UniProt P48546).
T2 sequence (P48546 22-466): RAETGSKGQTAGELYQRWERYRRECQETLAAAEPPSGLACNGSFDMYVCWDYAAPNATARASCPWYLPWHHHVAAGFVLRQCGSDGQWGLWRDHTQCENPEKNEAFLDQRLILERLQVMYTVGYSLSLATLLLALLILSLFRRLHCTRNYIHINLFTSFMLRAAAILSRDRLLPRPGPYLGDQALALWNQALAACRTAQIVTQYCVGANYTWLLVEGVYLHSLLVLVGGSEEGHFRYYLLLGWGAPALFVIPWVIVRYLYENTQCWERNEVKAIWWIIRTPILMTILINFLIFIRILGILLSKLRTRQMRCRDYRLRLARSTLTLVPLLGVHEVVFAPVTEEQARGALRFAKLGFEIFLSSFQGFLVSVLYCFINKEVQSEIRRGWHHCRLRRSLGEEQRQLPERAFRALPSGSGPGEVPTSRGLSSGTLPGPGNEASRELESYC
Kind of assay: PathHunter β-arrestin assay, GIP receptor. On the set-up: host or cells: PathHunter CHO-K1 GIPR β-Arrestin Cell Line. To be noted: β-arrestin-2 recruitment, PathHunter CHO-K1 GIPR β-Arrestin Cell Line, 90 min at 37° C.; normalized to GIP; read-out: GIPR β Arrestin EC50. (In general: Activated receptors often draw arrestin, which recruitment assays turn into a signal.)

Assay [3] has as its target T2, GIP receptor. Briefly: HitHunter cAMP assay, GIP receptor. As to conditions: for EC50: CHO cells stably expressing GIP receptor, cAMP accumulation, 30 min, read-out: EC50 GIP-1R; for Emax: CHO cells, cAMP, normalized to maximum signal from GIP (high) and DMSO (low), read-out: Emax GIP-1R.
In assay [4] the target is T1, GLP-1 receptor. Briefly: PathHunter β-arrestin assay, GLP-1 receptor. On the set-up: host or cells: PathHunter CHO-K1 GLP1R β-Arrestin Cell Line. To be noted: β-arrestin-2 recruitment, PathHunter CHO-K1 GLP1R β-Arrestin Cell Line, 90 min at 37° C.; normalized to GLP-1; read-out: GLP-1R β Arrestin EC50.

T1 sequence (P43220 24-463): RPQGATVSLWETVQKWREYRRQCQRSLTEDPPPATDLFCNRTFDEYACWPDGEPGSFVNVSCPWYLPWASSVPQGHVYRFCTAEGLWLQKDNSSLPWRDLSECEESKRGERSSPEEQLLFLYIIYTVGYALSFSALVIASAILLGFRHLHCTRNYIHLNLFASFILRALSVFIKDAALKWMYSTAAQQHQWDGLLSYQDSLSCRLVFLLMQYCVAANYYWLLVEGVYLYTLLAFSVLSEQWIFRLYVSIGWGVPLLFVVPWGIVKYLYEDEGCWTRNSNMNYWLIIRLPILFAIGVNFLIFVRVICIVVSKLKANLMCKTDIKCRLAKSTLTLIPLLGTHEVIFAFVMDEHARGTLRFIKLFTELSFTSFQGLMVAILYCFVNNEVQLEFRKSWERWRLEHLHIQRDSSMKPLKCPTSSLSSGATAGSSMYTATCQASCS

On to `CC[C@H](C)[C@H](NC(=O)[C@H](CO)NC(=O)[C@H](Cc1ccc(O)cc1)NC(=O)[C@H](CC(=O)O)NC(=O)[C@H](CO)NC(=O)[C@@H](NC(=O)[C@H](Cc1ccccc1)NC(=O)[C@@H](NC(=O)CNC(=O)[C@H](CCC(=O)O)NC(=O)CCNC(=O)[C@]1(c2ccccc2)CNC(=O)C1)[C@@H](C)O)[C@@H](C)O)C(=O)N[C@@H](Cc1ccc(O)cc1)C(=O)N[C@@H](CC(C)C)C(=O)N[C@@H](CC(=O)O)C(=O)N[C@@H](CCCCN)C(=O)N[C@@H](CCC(N)=O)C(=O)N[C@@H](C)C(=O)N[C@@H](C)C(=O)NC(C)(C)C(=O)N[C@@H](CCC(=O)O)C(=O)N[C@@H](Cc1ccccc1)C(=O)N[C@H](C(=O)N[C@@H](CCCCNC(=O)COCCOCCNC(=O)COCCOCCNC(=O)CC[C@H](NC(=O)CCCCCCCCCCCCCCCCCCC(=O)O)C(=O)O)C(=O)N[C@@H](Cc1c[nH]c2ccccc12)C(=O)N[C@@H](CC(C)C)C(=O)N[C@@H](CC(C)C)C(=O)N[C@@H](C)C(=O)NCC(=O)NCC(=O)N1CCC[C@H]1C(=O)N[C@@H](CO)C(=O)N[C@@H](CO)C(=O)NCC(=O)N[C@@H](C)C(=O)N1CCC[C@H]1C(=O)N1CCC[C@H]1C(=O)N1CCC[C@H]1C(=O)N[C@@H](CO)C(N)=O)C(C)C` (single isomer, unassigned) [Compound 102], for which the EC50 at GLP-1 receptor [1] was 0.1 to 1 nM; on GIP receptor [2], > 1000 nM; at GIP receptor [3] it was 1 to 10 nM; at GLP-1 receptor [4] it was > 1000 nM. Also, the Emax is 91% on GLP-1 receptor [1] and 101% at GIP receptor [3].

Turning to `CC[C@H](C)[C@H](NC(=O)[C@H](CO)NC(=O)[C@H](Cc1ccc(O)cc1)NC(=O)[C@H](CC(=O)O)NC(=O)[C@H](CO)NC(=O)[C@@H](NC(=O)[C@H](Cc1ccccc1)NC(=O)[C@@H](NC(=O)CNC(=O)[C@H](CCC(=O)O)NC(=O)CCNC(=O)[C@]1(c2ccccc2)CNC(=O)C1)[C@@H](C)O)[C@@H](C)O)C(=O)N[C@@H](Cc1ccc(O)cc1)C(=O)N[C@@H](CC(C)C)C(=O)N[C@@H](CC(=O)O)C(=O)N[C@@H](CCCCN)C(=O)N[C@@H](CCCCNC(=O)COCCOCCNC(=O)COCCOCCNC(=O)CC[C@H](NC(=O)CCCCCCCCCCCCCCCCCCC(=O)O)C(=O)O)C(=O)N[C@@H](C)C(=O)N[C@@H](C)C(=O)NC(C)(C)C(=O)N[C@@H](CCC(=O)O)C(=O)N[C@@H](Cc1ccccc1)C(=O)N[C@H](C(=O)N[C@@H](CC(N)=O)C(=O)N[C@@H](Cc1c[nH]c2ccccc12)C(=O)N[C@@H](CC(C)C)C(=O)N[C@@H](CC(C)C)C(=O)N[C@@H](C)C(=O)NCC(=O)NCC(=O)N1CCC[C@H]1C(=O)N[C@@H](CO)C(=O)N[C@@H](CO)C(=O)NCC(=O)N[C@@H](C)C(=O)N1CCC[C@H]1C(=O)N1CCC[C@H]1C(=O)N1CCC[C@H]1C(=O)N[C@@H](CO)C(N)=O)C(C)C` (single isomer, unassigned) [Compound 113], the EC50 is 0.1 to 1 nM on GLP-1 receptor [1], > 1000 nM on GIP receptor [2], 1 to 10 nM on GIP receptor [3] and > 1000 nM at GLP-1 receptor [4]. The Emax at GLP-1 receptor [1] came to 112%; on GIP receptor [3] it was 98%.
